Results: ChEMBL document CHEMBL3045838, “Synthesis, antimicrobial and antioxidant activities of 2-[1-{3,5-diaryl-4,5-dihydro-1H-pyrazolenyl}]-4-(4-nitrophenyl)-[1,3]-thiazoles” (2013)
≈ marks a conversion by molar mass, not a printed value.

Experiments:
Assay type in all cases: functional
[1] = tested on: Escherichia coli; assay: Antibacterial activity against Escherichia coli ATCC 25922 assessed as growth inhibition at 1.56 to 25 ug/mL
[2] = tested on: Escherichia coli; assay: microbe, parasite or virus in culture; settings: ATCC 25922
Description: Antibacterial activity against Escherichia coli ATCC 25922 assessed as growth inhibition by serial plate dilution method

[3] = tested on: Staphylococcus aureus; assay: Antibacterial activity against Staphylococcus aureus ATCC 25923 assessed as growth inhibition at 1.56 to 25 ug/mL
[4] = tested on: Staphylococcus aureus; assay: Antibacterial activity against Staphylococcus aureus ATCC 25923 assessed as growth inhibition by serial plate dilution method
[5] = tested on: Radical scavenging activity; assay: Antioxidant activity assessed as inhibition of DPPH radical generation at 4000 ug/mL after 15 min by UV-Vis spectrophotometric analysis relative to control; settings: at 4000 µg/mL
[6] = tested on: Aspergillus fumigatus; assay: Antifungal activity against Aspergillus fumigatus NCIM 902 assessed as growth inhibition at 1.56 to 25 ug/mL
[7] = tested on: Aspergillus fumigatus; assay: Antifungal activity against Aspergillus fumigatus NCIM 902 assessed as growth inhibition by serial plate dilution method
[8] = tested on: Aspergillus flavus; assay: Antifungal activity against Aspergillus flavus NCIM 524 assessed as growth inhibition at 1.56 to 25 ug/mL
[9] = tested on: Aspergillus flavus; assay: Antifungal activity against Aspergillus flavus NCIM 524 assessed as growth inhibition by serial plate dilution method
[10] = tested on: Trichophyton mentagrophytes; assay: Antifungal activity against Trichophyton mentagrophytes assessed as growth inhibition at 1.56 to 25 ug/mL
[11] = tested on: Trichophyton mentagrophytes; assay: Antifungal activity against Trichophyton mentagrophytes assessed as growth inhibition by serial plate dilution method
[12] = tested on: Talaromyces marneffei; assay: Antifungal activity against Talaromyces marneffei assessed as growth inhibition at 1.56 to 25 ug/mL
[13] = tested on: Talaromyces marneffei; assay: Antifungal activity against Talaromyces marneffei assessed as growth inhibition by serial plate dilution method
[14] = tested on: Klebsiella pneumoniae; assay: Antibacterial activity against Klebsiella pneumoniae assessed as growth inhibition by serial plate dilution method
[15] = tested on: Klebsiella pneumoniae; assay: Antibacterial activity against Klebsiella pneumoniae assessed as growth inhibition at 1.56 to 25 ug/mL
[16] = tested on: Pseudomonas aeruginosa; assay: Antibacterial activity against Pseudomonas aeruginosa ATCC 27853 assessed as growth inhibition at 1.56 to 25 ug/mL
[17] = tested on: Pseudomonas aeruginosa; assay: Antibacterial activity against Pseudomonas aeruginosa ATCC 27853 assessed as growth inhibition by serial plate dilution method

| MIC [2] | MIC [4] | MIC [7] | MIC [9] | MIC [11] | MIC [13] | MIC [14] | MIC [17] | SMILES | diameter of the inhibition zone (DIZ) [1] | diameter of the inhibition zone (DIZ) [3] | inhibition [5] | diameter of the inhibition zone (DIZ) [6] | diameter of the inhibition zone (DIZ) [8] | diameter of the inhibition zone (DIZ) [10] | diameter of the inhibition zone (DIZ) [12] | diameter of the inhibition zone (DIZ) [15] | diameter of the inhibition zone (DIZ) [16] |
| --- | --- | --- | --- | --- | --- | --- | --- | --- | --- | --- | --- | --- | --- | --- | --- | --- | --- |
| 12.5 µg/mL (≈ 19.8 µM) | 12.5 µg/mL (≈ 19.8 µM) | 12.5 µg/mL (≈ 19.8 µM) | 12.5 µg/mL (≈ 19.8 µM) | 12.5 µg/mL (≈ 19.8 µM) | 12.5 µg/mL (≈ 19.8 µM) | 12.5 µg/mL (≈ 19.8 µM) | 12.5 µg/mL (≈ 19.8 µM) | COc1ccc(C2=NN(c3nc(-c4ccc([N+](=O)[O-])cc4)cs3)C(c3ccc(-c4ccc(Br)cc4)o3)C2)cc1OC (stereo not drawn) | 11 mm | 11 mm | 69% | 11 mm | 11 mm | 11 mm | 11 mm | 11 mm | 11 mm |
| 12.5 µg/mL (≈ 23.7 µM) | 12.5 µg/mL (≈ 23.7 µM) | 12.5 µg/mL (≈ 23.7 µM) | 12.5 µg/mL (≈ 23.7 µM) | 12.5 µg/mL (≈ 23.7 µM) | 12.5 µg/mL (≈ 23.7 µM) | 12.5 µg/mL (≈ 23.7 µM) | 12.5 µg/mL (≈ 23.7 µM) | O=[N+]([O-])c1ccc(-c2csc(N3N=C(c4ccccc4)CC3c3ccc(-c4ccc(Cl)cc4)o3)n2)cc1 (stereo not drawn) | 11 mm | 11 mm | 45% | 11 mm | 11 mm | 11 mm | 11 mm | 11 mm | 11 mm |
| 12.5 µg/mL (≈ 20.4 µM) | 12.5 µg/mL (≈ 20.4 µM) | 12.5 µg/mL (≈ 20.4 µM) | 12.5 µg/mL (≈ 20.4 µM) | 12.5 µg/mL (≈ 20.4 µM) | 12.5 µg/mL (≈ 20.4 µM) | 12.5 µg/mL (≈ 20.4 µM) | 12.5 µg/mL (≈ 20.4 µM) | COc1ccc(C2=NN(c3nc(-c4ccc([N+](=O)[O-])cc4)cs3)C(c3ccc(-c4c(C)cccc4[N+](=O)[O-])o3)C2)cc1OC (stereo not drawn) | 11 mm | 11 mm | 66% | 11 mm | 11 mm | 11 mm | 11 mm | 11 mm | 11 mm |
| 25 µg/mL (≈ 49.7 µM) | 25 µg/mL (≈ 49.7 µM) | 25 µg/mL (≈ 49.7 µM) | 25 µg/mL (≈ 49.7 µM) | 25 µg/mL (≈ 49.7 µM) | 25 µg/mL (≈ 49.7 µM) | 25 µg/mL (≈ 49.7 µM) | 25 µg/mL (≈ 49.7 µM) | COc1ccc(C2=NN(c3nc(-c4ccc([N+](=O)[O-])cc4)cs3)C(c3ccc(SC)cc3)C2)cc1 (stereo not drawn) | < 10 mm | < 10 mm | 79% | < 10 mm | < 10 mm | < 10 mm | < 10 mm | < 10 mm | < 10 mm |
